The values that follow come from patent US7033598B2, “Methods and apparatus for enhanced and controlled delivery of a biologically active agent into the central nervous system of a mammal” (Intrabrain International N.V., priority 1995, dated 2006).

For the data set the following is noted: transnasal iontophoresis +3.0 mA, 60 minutes; exsanguinated rabbits.

Method: The drug was administered by two nasal electrodes that were each deep inserted in the nasal passages. The receptor electrode was positioned at the back of the animal's head. The animal was prior to delivery exsanguinated so that drug transport via the systemic compartment to the brain cannot occur.
The receptor electrode used in the experiments was saturated with a 0.9% NaCl solution. The iontophoresis apparatus used in these experiment was an Endomed 581 (Enraf Nonius, Delft, The Netherlands) iontophoresis device.
Seven of the nine animals were treated “actively” by means of transnasal iontophoresis. A medium frequency, interrupted direct current with a strength of +3.0 mA was applied to the electrodes immediately after the exsanguination was completed. The remaining two animals functioned as controls of the method and no current was supplied to their electrodes. The experiment lasted 60 minutes.

For `Cl.Nc1c2c(nc3ccccc13)CCCC2.O` [Tacrine hydrochloride, 9-amino-1,2,3,4-tetrahydroacridine hydrochloride monohydrate], the “migration distance under the applied electric field” value is 5-6 cm.
